# Molecular target: T1, glucocerebrosidase (Homo sapiens, UniProt P04062)
# T1 sequence (P04062 40-536): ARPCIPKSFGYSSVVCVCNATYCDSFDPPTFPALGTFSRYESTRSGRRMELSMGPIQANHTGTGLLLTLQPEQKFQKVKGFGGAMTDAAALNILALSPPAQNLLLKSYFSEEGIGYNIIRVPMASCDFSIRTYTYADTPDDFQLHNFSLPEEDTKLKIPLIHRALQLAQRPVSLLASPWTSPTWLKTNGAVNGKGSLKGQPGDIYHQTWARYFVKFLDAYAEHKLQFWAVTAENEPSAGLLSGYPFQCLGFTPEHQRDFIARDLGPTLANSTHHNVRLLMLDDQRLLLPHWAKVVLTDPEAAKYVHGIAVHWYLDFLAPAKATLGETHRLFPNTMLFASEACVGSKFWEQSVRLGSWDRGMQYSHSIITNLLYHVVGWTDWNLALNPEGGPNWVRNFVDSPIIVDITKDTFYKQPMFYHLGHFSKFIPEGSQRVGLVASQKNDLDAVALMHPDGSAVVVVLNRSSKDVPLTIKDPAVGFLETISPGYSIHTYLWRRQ
# Test: Glucocerebrosidase activity assay with blue substrate (4MU-Glc)
# Assay type: biochemical
# Details: Table 2; additional compounds, tested as described in Example 2
# Experimental: Example 2—Glucocerebrosidase Activity Assay with Blue Substrate
# The compounds in DMSO solution 0.5 μL/well were transferred to a black 96-well plate (the final titration was 24 nM to 50 μM, 12 concentrations, 2× dilution). 33.5 μL enzyme solution (7.5 nM final concentration) was transferred to the wells. After 5 min of incubation at room temperature, the enzyme reaction was initiated by the addition of 33 μL/well blue substrate. Final concentration of the blue substrate (4MU-Glc) was 1.5 mM. The blue substrate reaction was terminated by the addition of 33 μL/well stop solution (1 M NaOH and 1 M glycine mixture, pH 10) after 30 min of incubation at 37° C. The fluorescence was then measured in the Biotek Synergy H1 multi-mode plate reader with Ex=365 nm and Em=440 nm.
# Additional compounds were synthesized and tested for glucocerebrosidase modulatory activity as described in Example 1 and Example 2.
SMILES,AC50,Emax
CN(CCOc1ccc2[nH]ccc2c1)c1nc(-c2cccnc2)nc2ccccc12 [Compound 147],4.47 µM,450%
c1cncc(-c2nc(N3CCc4cccnc4C3)c3ccccc3n2)c1 [Compound 148],35 µM,285%
CCn1ncc2c(N(C)CCOc3ccc(CNC(=O)CCCCNC(=O)OC(C)(C)C)cc3)nc(-c3ccsc3)nc21 [Compound 149],0.4 µM,157%
CCN1Cc2nc(-c3cccnc3)nc(N(C)CCOc3ccccc3)c2C1 [Compound 150],1.25 µM,135%
CN(CCOc1ccccc1)c1nc(-c2cccnc2)nc2c1cnn2-c1ccccc1 [Compound 151],2.5 µM,305%
CN(CCOc1ccccc1)c1nc(-c2cccnc2)nc2c1cnn2Cc1ccccc1 [Compound 152],2 µM,425%
CN(CCOc1ccccc1)c1nc(-c2cccnc2)nc2c1oc1ccccc12 [Compound 153],1.58 µM,178%
c1ccc(O[C@H]2CCN(c3nc(-c4cccnc4)nc4ccccc34)C2)cc1 [Compound 154],4.47 µM,190%
c1ccc(O[C@@H]2CCN(c3nc(-c4cccnc4)nc4ccccc34)C2)cc1 [Compound 155],1.78 µM,260%
CCn1ncc2c(N3CC[C@H](Oc4ccccc4)C3)nc(-c3cccnc3)nc21 [Compound 156],39.8 µM,220%
CCn1ncc2c(N3CC[C@@H](Oc4ccccc4)C3)nc(-c3cccnc3)nc21 [Compound 157],22.4 µM,580%
CCn1ncc2c(N3CC[C@H](Oc4ccccc4)C3)nc(-c3cncc(C(F)(F)F)c3)nc21 [Compound 158],39.8 µM,163%
CCn1ncc2c(N3CC[C@@H](Oc4ccccc4)C3)nc(-c3cncc(C(F)(F)F)c3)nc21 [Compound 159],44.6 µM,242%
CCn1ncc2c(N3CC[C@H](Oc4ccccc4)C3)nc(-c3cncc(Cl)c3)nc21 [Compound 160],28.2 µM,130%
CCn1ncc2c(N3CC[C@@H](Oc4ccccc4)C3)nc(-c3cncc(Cl)c3)nc21 [Compound 161],39.8 µM,190%
CCn1ncc2c(N3CCC[C@H](Oc4ccccc4)C3)nc(-c3cccnc3)nc21 [Compound 163],25.1 µM,475%

SMILES,AC50,Emax
CCn1ncc2c(N3CCC[C@@H](Oc4ccccc4)C3)nc(-c3cccnc3)nc21 [Compound 164],28.2 µM,425%
c1ccc(OC2CN(c3nc(-c4cccnc4)nc4ccccc34)C2)cc1 [Compound 165],3.98 µM,305%
c1ccc(OC2CCN(c3nc(-c4cccnc4)nc4ccccc34)CC2)cc1 [Compound 166],6.31 µM,276%
CN(CCOc1ccccc1)c1cc(N2CCC(O)CC2)nc(Cl)n1 [Compound 167],28.2 µM,250%
CN(CCOc1ccccc1)c1cc(Cl)nc(-c2cccnc2)n1 [Compound 168],4 µM,360%
Cc1cc(-c2nc(N(C)CCOc3ccccc3)c3ccccc3n2)ccn1 [Compound 169],15.8 µM,191%
CN(CCOc1ccccc1)c1cc(N2CCC(O)CC2)nc(-c2cccnc2)n1 [Compound 170],28.2 µM,740%
CN(CCOc1ccccc1)c1cc(N2CC[C@@H](O)C2)nc(-c2cccnc2)n1 [Compound 171],5 µM,280%
CN(CCOc1ccccc1)c1cc(C2CC[C@H](O)C2)nc(-c2cccnc2)n1 (stereo partly drawn) [Compound 172],8.9 µM,525%
CN(CCOc1ccccc1)c1cc(N2CC(O)C2)nc(-c2cccnc2)n1 [Compound 173],2.5 µM,260%
CN(CCOc1ccccc1)c1cc(N2CCC(CO)CC2)nc(-c2cccnc2)n1 [Compound 174],14.1 µM,625%
CCCCCCCCCN(C)c1nc(-c2cccnc2)nc2ccccc12 [Compound 179],6.31 µM,118%
CN(CCOc1ccccc1)c1nc(-c2cccnc2)nc2cccnc12 [Compound 182],5.01 µM,225%
CC(C)Cn1ncc2c(N(C)CCOc3ccccc3)nc(-c3cccnc3)nc21 [Compound 183],2.5 µM,340%
CCn1ncc2c(N(C)CCOc3ccc(CNC(=O)CCCCCNC(=O)CCOCCOCCOCCOCCNC(=O)OC(C)(C)C)cc3)nc(-c3cccnc3)nc21 [Compound 184],2.82 µM,
CCCn1ncc2c(N(C)CCOc3ccccc3)nc(-c3cccnc3)nc21 [Compound 187],0.8 µM,325%

# From US12291533B2, “Substituted fused pyrimidine compounds and uses thereof” (Northwestern University, priority 2017, dated 2025)
